Assay results from patent US8142714B2, “Cleaning and disinfection of surgical and medical instruments and appliances” (Chemische Fabrik Dr. Weigert GmbH & Co. KG, priority 2002, dated 2012).

Columns and labels:
[1] = Surface tension as specified in DIN 53993; assay type: physicochemical; conditions: NaOH in deionized water, cleaner 1% by volume in Hamburg city water
Experimental: The cleaning solution diluted in ready-to-use form preferably has a surface tension of less than 50 mN/m, preferably less than 40 mN/m, further preferably less than 35 mN/m, further preferably less than 30 mN/m. The surface tension is determined by the plate-ring method as specified in DIN 53993.
The surface tension was determined as specified in DIN 53993 for the following liquids: […]

[2] = Cleaning of roughened microscope slides dirtied with blood-egg yolk mixture, immersion bath; conditions: 50 mg blood-egg yolk mixture dried at 55° C. for 2 h; stirred immersion bath 10 min at room temperature; cleaner 1% strength by volume
Experimental: Roughened microscope slides are dirtied with 50 mg of a blood-egg yolk mixture, dried at 55° C. for 2 h and then immersed in a stirred bath for 10 min at room temperature. The medium used for the immersion bath is deionized water, 0.1 N NaOH or a 1% strength by volume cleaning solution of the cleaning composition concentrate according to example 1. The residual amount of fouling then determined is 20% by weight for water, 35% by weight for 0.1 N NaOH and less than 5% by weight for the cleaner, as immersion bath medium used.

- surface tension [1]: 72 mN/m
Structure (SMILES): [Na+].[OH-] [0.1 N NaOH, NaOH]
- residual amount of fouling [2]: 35 % by weight
